Reference: ChEMBL document CHEMBL2010693, “Scaffold hybridization in generation of indenoindolones as anticancer agents that induce apoptosis with cell cycle arrest at G2/M phase” (Bioorg Med Chem Lett, 2012)
Active and inactive are the calls of the source. The rule behind the calls is not given here.

System: not listed separately
Assay: Cytotoxicity against african green monkey Vero cells after 24 hrs by MTT assay
Assay type: cell-based
Conditions: chlorocebus sabaeus, read-out: LC50
With `O=C1c2cc(F)ccc2-c2[nH]c3ccccc3c21` the CC50 at 24 h was over 100 µM. With `COc1cc2c(c(OC)c1OC)-c1c(c3ccccc3n1C)C2=O` the CC50 at 24 h was 42 µM. `O=C1c2ccccc2-c2c1c1ccccc1n2Cc1ccccc1` gave a CC50 at 24 h of 57 µM. Compound `O=C1c2ccccc2-c2[nH]c3ccccc3c21` has a CC50 at 24 h of 56 µM. `COc1cc2c(cc1OC)-c1[nH]c3ccccc3c1C2=O` gave a CC50 at 24 h of 47 µM.

System: HEK293
Assay: Cell cycle arrest in human HEK293 cells assessed as accumulation at G1 phase at LC50 after 48 hrs by propidium iodide staining based FACS analysis (reference value: 53.56 %)
Assay type: functional
Conditions: not given
Compound `O=C1c2cc(F)ccc2-c2[nH]c3ccccc3c21` has an Activity of 37.31%. `COc1cc2c(c(OC)c1OC)-c1c(c3ccccc3n1C)C2=O` gave an Activity of 22.98%. For `O=C1c2ccccc2-c2c1c1ccccc1n2Cc1ccccc1`, the Activity was 41.21%. For `O=C1c2ccccc2-c2[nH]c3ccccc3c21`, the Activity was 6.29%. For `COc1cc2c(cc1OC)-c1[nH]c3ccccc3c1C2=O`, the Activity was 3.43%.

System: not listed separately
Assay: Cytotoxicity against african green monkey Vero cells after 48 hrs by MTT assay
Assay type: cell-based
Conditions: chlorocebus sabaeus, read-out: LC50
In the case of `O=C1c2cc(F)ccc2-c2[nH]c3ccccc3c21`, the CC50 at 48 h is reported as over 100 µM. In the case of `COc1cc([C@@H]2c3cc4c(cc3[C@@H](O[C@@H]3O[C@@H]5CO[C@@H](C)O[C@H]5[C@H](O)[C@H]3O)[C@H]3COC(=O)[C@H]23)OCO4)cc(OC)c1O` [ETOPOSIDE], the CC50 at 48 h is reported as 18 µM. With `COc1cc2c(c(OC)c1OC)-c1c(c3ccccc3n1C)C2=O` the CC50 at 48 h was 39 µM. `O=C1c2ccccc2-c2c1c1ccccc1n2Cc1ccccc1` showed a CC50 at 48 h of 53 µM. Compound `O=C1c2ccccc2-c2[nH]c3ccccc3c21` has a CC50 at 48 h of 48 µM. In the case of `COc1cc2c(cc1OC)-c1[nH]c3ccccc3c1C2=O`, the CC50 at 48 h is reported as 54 µM.

System: HEK293
Assay: Induction of apoptosis in human HEK293 cells assessed as bubble shape nuclei at LC50 after 48 hrs using DAPI staining method
Assay type: functional, cell-based
Conditions: not given
In the case of `O=C1c2cc(F)ccc2-c2[nH]c3ccccc3c21`, the Activity is reported as “Active”. For `COc1cc2c(c(OC)c1OC)-c1c(c3ccccc3n1C)C2=O`, the Activity was “Active”. In the case of `O=C1c2ccccc2-c2c1c1ccccc1n2Cc1ccccc1`, the Activity is reported as “Active”. In the case of `O=C1c2ccccc2-c2[nH]c3ccccc3c21`, the Activity is reported as “Active”. For `COc1cc2c(cc1OC)-c1[nH]c3ccccc3c1C2=O`, the Activity was “Active”.

System: HEK293
Assay: Cytotoxicity against human HEK293 cells after 24 hrs by MTT assay
Assay type: functional
Conditions: HEK293, 24 h, read-out: LC50 (the source's name)
`O=C1c2cc(F)ccc2-c2[nH]c3ccccc3c21` showed a CC50 of 18 µM. In the case of `COc1cc2c(c(OC)c1OC)-c1c(c3ccccc3n1C)C2=O`, the CC50 is reported as 39 µM. For `O=C1c2ccccc2-c2c1c1ccccc1n2Cc1ccccc1`, the CC50 was 50 µM. `O=C1c2ccccc2-c2[nH]c3ccccc3c21` gave a CC50 of 50 µM. In the case of `COc1cc2c(cc1OC)-c1[nH]c3ccccc3c1C2=O`, the CC50 is reported as 16 µM.

System: HEK293
Assay: Induction of apoptosis in human HEK293 cells assessed as increase in caspase-3 expression after 48 hrs by immunohistochemistry analysis
Assay type: functional, cell-based
Conditions: not given
For `O=C1c2cc(F)ccc2-c2[nH]c3ccccc3c21`, the Activity was “Active”. For `COc1cc2c(c(OC)c1OC)-c1c(c3ccccc3n1C)C2=O`, the Activity was “Active”. In the case of `O=C1c2ccccc2-c2c1c1ccccc1n2Cc1ccccc1`, the Activity is reported as “Active”. In the case of `O=C1c2ccccc2-c2[nH]c3ccccc3c21`, the Activity is reported as “Active”. For `COc1cc2c(cc1OC)-c1[nH]c3ccccc3c1C2=O`, the Activity was “Active”.

System: not listed separately
Assay: Cytotoxicity against african green monkey Vero cells after 72 hrs by MTT assay
Assay type: cell-based
Conditions: chlorocebus sabaeus, read-out: LC50
`O=C1c2cc(F)ccc2-c2[nH]c3ccccc3c21` gave a CC50 at 72 h of 65 µM. Compound `COc1cc2c(c(OC)c1OC)-c1c(c3ccccc3n1C)C2=O` has a CC50 at 72 h of 35 µM. Compound `O=C1c2ccccc2-c2c1c1ccccc1n2Cc1ccccc1` has a CC50 at 72 h of 45 µM. For `O=C1c2ccccc2-c2[nH]c3ccccc3c21`, the CC50 at 72 h was 40 µM. With `COc1cc2c(cc1OC)-c1[nH]c3ccccc3c1C2=O` the CC50 at 72 h was 55 µM.

System: HEK293
Assay: Cell cycle arrest in human HEK293 cells assessed as accumulation at G2/M phase at LC50 after 48 hrs by propidium iodide staining based FACS analysis (reference value: 2.76 %)
Assay type: functional
Conditions: not given
`O=C1c2cc(F)ccc2-c2[nH]c3ccccc3c21` gave an Activity of 38.9%. `COc1cc2c(c(OC)c1OC)-c1c(c3ccccc3n1C)C2=O` showed an Activity of 57.56%. Compound `O=C1c2ccccc2-c2c1c1ccccc1n2Cc1ccccc1` has an Activity of 38.7%. `O=C1c2ccccc2-c2[nH]c3ccccc3c21` showed an Activity of 76.44%. In the case of `COc1cc2c(cc1OC)-c1[nH]c3ccccc3c1C2=O`, the Activity is reported as 73.31%.

System: HEK293
Assay: Cell cycle arrest in human HEK293 cells assessed as accumulation at S phase at LC50 after 48 hrs by propidium iodide staining based FACS analysis (reference value: 18.92 %)
Assay type: functional
Conditions: not given
With `O=C1c2cc(F)ccc2-c2[nH]c3ccccc3c21` the Activity was 23.79%. With `COc1cc2c(c(OC)c1OC)-c1c(c3ccccc3n1C)C2=O` the Activity was 19.52%. `O=C1c2ccccc2-c2c1c1ccccc1n2Cc1ccccc1` gave an Activity of 20.19%. For `O=C1c2ccccc2-c2[nH]c3ccccc3c21`, the Activity was 17.35%. `COc1cc2c(cc1OC)-c1[nH]c3ccccc3c1C2=O` gave an Activity of 23.95%.

System: HEK293
Assay: Induction of apoptosis in human HEK293 cells assessed as reduction of Bcl-xL level after 48 hrs by Western blot analysis
Assay type: functional, cell-based
Conditions: not given
With `O=C1c2cc(F)ccc2-c2[nH]c3ccccc3c21` the Activity was “Active”. In the case of `COc1cc2c(c(OC)c1OC)-c1c(c3ccccc3n1C)C2=O`, the Activity is reported as “Active”. With `O=C1c2ccccc2-c2c1c1ccccc1n2Cc1ccccc1` the Activity was “Active”. With `O=C1c2ccccc2-c2[nH]c3ccccc3c21` the Activity was “Active”. With `COc1cc2c(cc1OC)-c1[nH]c3ccccc3c1C2=O` the Activity was “Active”.

System: HEK293
Assay: Induction of apoptosis in human HEK293 cells assessed as increase in Bax expression after 48 hrs by Western blot analysis
Assay type: functional, cell-based
Conditions: not given
For `O=C1c2cc(F)ccc2-c2[nH]c3ccccc3c21`, the Activity was “Active”. In the case of `COc1cc2c(c(OC)c1OC)-c1c(c3ccccc3n1C)C2=O`, the Activity is reported as “Active”. In the case of `O=C1c2ccccc2-c2c1c1ccccc1n2Cc1ccccc1`, the Activity is reported as “Active”. With `O=C1c2ccccc2-c2[nH]c3ccccc3c21` the Activity was “Active”. With `COc1cc2c(cc1OC)-c1[nH]c3ccccc3c1C2=O` the Activity was “Active”.

System: HEK293
Assay: Induction of apoptosis in human HEK293 cells assessed as increase in caspase-3 cleavage after 48 hrs by Western blot analysis
Assay type: functional, cell-based
Conditions: not given
For `O=C1c2cc(F)ccc2-c2[nH]c3ccccc3c21`, the Activity was “Active”. In the case of `COc1cc2c(c(OC)c1OC)-c1c(c3ccccc3n1C)C2=O`, the Activity is reported as “Active”. In the case of `O=C1c2ccccc2-c2c1c1ccccc1n2Cc1ccccc1`, the Activity is reported as “Active”. In the case of `O=C1c2ccccc2-c2[nH]c3ccccc3c21`, the Activity is reported as “Active”. For `COc1cc2c(cc1OC)-c1[nH]c3ccccc3c1C2=O`, the Activity was “Active”.

System: HEK293
Assay: Induction of apoptosis in human HEK293 cells assessed as punchate nuclei at LC50 after 48 hrs using DAPI staining method
Assay type: functional, cell-based
Conditions: not given
With `O=C1c2cc(F)ccc2-c2[nH]c3ccccc3c21` the Activity was “Active”. In the case of `COc1cc2c(c(OC)c1OC)-c1c(c3ccccc3n1C)C2=O`, the Activity is reported as “Active”. With `O=C1c2ccccc2-c2c1c1ccccc1n2Cc1ccccc1` the Activity was “Active”. For `O=C1c2ccccc2-c2[nH]c3ccccc3c21`, the Activity was “Active”. For `COc1cc2c(cc1OC)-c1[nH]c3ccccc3c1C2=O`, the Activity was “Active”.

System: HEK293
Assay: Induction of apoptosis in human HEK293 cells assessed as increase in induction of PARP cleavage after 48 hrs by Western blot analysis
Assay type: functional, cell-based
Conditions: not given
In the case of `O=C1c2cc(F)ccc2-c2[nH]c3ccccc3c21`, the Activity is reported as “Active”. With `COc1cc2c(c(OC)c1OC)-c1c(c3ccccc3n1C)C2=O` the Activity was “Active”. For `O=C1c2ccccc2-c2c1c1ccccc1n2Cc1ccccc1`, the Activity was “Active”. With `O=C1c2ccccc2-c2[nH]c3ccccc3c21` the Activity was “Active”. With `COc1cc2c(cc1OC)-c1[nH]c3ccccc3c1C2=O` the Activity was “Active”.

System: HEK293
Assay: Induction of apoptosis in human HEK293 cells assessed as shrinkage of nuclei at LC50 after 48 hrs using DAPI staining method
Assay type: functional, cell-based
Conditions: not given
With `O=C1c2cc(F)ccc2-c2[nH]c3ccccc3c21` the Activity was “Active”. For `COc1cc2c(c(OC)c1OC)-c1c(c3ccccc3n1C)C2=O`, the Activity was “Active”. In the case of `O=C1c2ccccc2-c2c1c1ccccc1n2Cc1ccccc1`, the Activity is reported as “Active”. For `O=C1c2ccccc2-c2[nH]c3ccccc3c21`, the Activity was “Active”. With `COc1cc2c(cc1OC)-c1[nH]c3ccccc3c1C2=O` the Activity was “Active”.

System: HEK293
Assay: Cytotoxicity against human HEK293 cells after 48 hrs by MTT assay
Assay type: functional
Conditions: HEK293, 48 h, read-out: LC50 (the source's name)
With `O=C1c2cc(F)ccc2-c2[nH]c3ccccc3c21` the CC50 was 22 µM. For `COc1cc([C@@H]2c3cc4c(cc3[C@@H](O[C@@H]3O[C@@H]5CO[C@@H](C)O[C@H]5[C@H](O)[C@H]3O)[C@H]3COC(=O)[C@H]23)OCO4)cc(OC)c1O` [ETOPOSIDE], the CC50 was 28 µM. With `COc1cc2c(c(OC)c1OC)-c1c(c3ccccc3n1C)C2=O` the CC50 was 17 µM. `O=c1[nH]cc(F)c(=O)[nH]1` [FLUOROURACIL] gave a CC50 of 25 µM. For `O=C1c2ccccc2-c2c1c1ccccc1n2Cc1ccccc1`, the CC50 was 17 µM. For `O=C1c2ccccc2-c2[nH]c3ccccc3c21`, the CC50 was 15 µM. `COc1cc2c(cc1OC)-c1[nH]c3ccccc3c1C2=O` showed a CC50 of 15 µM.

System: HEK293
Assay: Cytotoxicity against human HEK293 cells after 72 hrs by MTT assay
Assay type: functional
Conditions: HEK293, 72 h, read-out: LC50 (the source's name)
`O=C1c2cc(F)ccc2-c2[nH]c3ccccc3c21` gave a CC50 of 15 µM. In the case of `COc1cc2c(c(OC)c1OC)-c1c(c3ccccc3n1C)C2=O`, the CC50 is reported as 16 µM. Work on `O=C1c2ccccc2-c2c1c1ccccc1n2Cc1ccccc1` yielded a CC50 of 16 µM. `O=C1c2ccccc2-c2[nH]c3ccccc3c21` showed a CC50 of 14 µM. `COc1cc2c(cc1OC)-c1[nH]c3ccccc3c1C2=O` showed a CC50 of 12 µM.

System: HEK293
Assay: Cell cycle arrest in human HEK293 cells assessed as accumulation at G0 phase at LC50 after 48 hrs by propidium iodide staining based FACS analysis (reference value: 3.5 %)
Assay type: functional
Conditions: not given
Work on `O=C1c2cc(F)ccc2-c2[nH]c3ccccc3c21` yielded an Activity of 0.46%. With `COc1cc2c(c(OC)c1OC)-c1c(c3ccccc3n1C)C2=O` the Activity was 0.23%. Compound `O=C1c2ccccc2-c2c1c1ccccc1n2Cc1ccccc1` has an Activity of 0.44%. For `O=C1c2ccccc2-c2[nH]c3ccccc3c21`, the Activity was 0.05%. With `COc1cc2c(cc1OC)-c1[nH]c3ccccc3c1C2=O` the Activity was 0.03%.
